What was measured:
[1] = Diffusion through hydrogel container (version 2.0) in USP apparatus IV, PBS medium; assay type: physicochemical; conditions: at 8.25 h; caffeine stock solution 4 mg/mL, 1 mL; 100 mL PBS; 34 C
Protocol: The compendial flow-through cell 504 of the USP apparatus IV 502 is an enclosed system with a heating mantle that allows a controlled medium flow from the bottom to the top of the cell 504. The ring 114 was mounted onto a cylindrical mould and the gel composition was filled into the mould. A punch was used to create interior pockets of similar size. The drug formulation 106 was then injected into the interior pocket of the receptacle 102, and the ring 114 was sealed with a rubber plug 116. The USP apparatus IV 502, as well as the various flow-through cells 504, have been described by various pharmacopoeias and related literature. For this diffusion experiment, a SOTAX CP7-35 Piston Pump 506, alone with a fraction collector 508 and the SOTAX CE7 dissolution system, was used. Media 510 was filled into the reservoir 512 with magnetic stirrers running at 150 rpm. The dissolution apparatus was operated in a closed-loop configuration with a constant flow of 8±0.4 mL/min for all experiments. […] Caffeine was quantified with a ultraviolet-visible (UV/Vis) spectrometer. Subsequently, the cumulative diffusion of caffeine was calculated by comparing the diffused amount with the initially added drug concentration. […] In the next step, new containers 100 were evaluated with Actrapid® and […]®. […]

[2] = Proof-of-concept model: diffusion through agarose hydrogel container (version 1.0) in modified flow-through cell; assay type: physicochemical; conditions: plateau at about 7 h, PBS with Tween 80
Description: FIG. 4A illustrates a hydrogel container 402 (left) and a modified flow-through cell 404 (right) used as a proof-of-concept model for the diffusion experiment shown in the first flow chart 300A of FIG. 3. The proof-of-concept model was designed to affirm the discriminative power of an agarose hydrogel under continuous media flow. Serving as a physicochemical barrier between drug and media, it is supposed to generate data ascertaining differences in diffusion behaviour and gel interaction of closely related drug formulations. For this, Actrapid® (regular human insulin, hexamer) and Apidra® (insulin glulisine) were chosen as model peptide formulations for the initial setup. m-Cresol, present in both formulations, was quantified as well, serving as an internal standard.
A cylindrical gel that forms both the physicochemical barrier and pocket was prepared with the help of custom-made plastic receptacles. The gel consists of 2% (w/w) agarose dissolved in PBS. […] After cooling at room temperature, the gel is formed and ready to use. […]
FIG. 4B illustrates an assay setup for the proof-of-concept model of FIG. 4A for in vitro drug testing. […] Quantification of insulin and m-cresol in the medium was then carried out by HPLC. Subsequently, the cumulative diffusion of the model drugs was calculated by comparing the diffused amount with the initially added drug concentration. […]

SMILES | cumulative diffusion of caffeine [1] | cumulative diffusion of m-cresol, maximum ([2]; m-cresol inside Apidra) | cumulative diffusion of m-cresol, plateau ([2]; m-cresol inside the Actrapid formulation)
Cn1c(=O)c2c(ncn2C)n(C)c1=O [caffeine] | around 101±3% |  | 
Cc1cccc(O)c1 [m-cresol, m-Cresol] |  | 88±0.2% | 84±1.0%

Source: US20260131324A1, “A CONTAINER FOR IN VITRO DRUG TESTING” (National University of Singapore, priority 2022, published 2026)
